In patent US11337984B2, “Methods for treating, diagnosing and prognosing a haematological malignancy” (Institut de Recerca Contra La Leucèmia Josep Carreras, priority 2014, dated 2022):
“Also recorded” adds a separate entry of the source.

Key:
[1] = system: HL-60, KG-1, MonoMac-1 and Kasumi-1 AML cell lines; experiment: Cell viability of AML cell lines by flow cytometry (7-AAD/Hoechst, volumetric count); type: cell-based, human
Method: FIG. 1. […] 10^6 HL-60, KG-1, MonoMac-1 and Kasumi-1 cells per mL in complete RPMI media were treated with 0.1, 1 and 10 μM Apomorphine for 72 h. […] Cells were stained with 7-aminoactinomycin D (7-AAD, CAS no. 7240-37-1) and Hoechst 33342 (CAS no. 23491-52-3) and analyzed by flow cytometry. […] Cell number was calculated by volumetric count. A. The mean (symbol) for each AML cell line and standard deviation (error bars) from 6 different biological replicates are represented. B. The average corresponding to the four different AML cell lines is represented. *p<0.05.
FIG. 2. […] Cell number was calculated by volumetric count. A. The mean (symbol) for each AML cell line and standard deviation (error bars) from 6 different biological replicates are represented. B. AML cell lines were treated with 10 μM Apomorphine or Methiothepin in the presence or absence of 5-CT or 5-HT. *p<0.05. Apo: apomorphine; Methio: methiothepine.
In order to test the anti-leukaemic effect of 5HTR antagonists, HL-60 (Collins, Gallo et al. Nature. 1977; 270(5635):347-9), MonoMac-1 (Steube, Teepe et al. Leuk Res. 1997; 21(4):327-35), KG-1 (Koeffler and Golde. Science. 1978; 200(4346):1153-4) and Kasumi-1 (Asou, Tashiro et al. Blood. 1991; 77(9):2031-6) AML (Acute Myeloid Leukaemia) cell lines were treated with the broad 5HTR antagonist Apomorphine (CAS no. 314-19-2) at different doses for 72 h. One million cells per mL were seeded in complete RPMI media supplemented with 10% fetal bovine serum in a 96-well plate. The concentration used for the Apomorphine treatment was 0.1, 1 and 10 μM.
The human 5HTR family is composed by 7 subtypes (from 1 to 7) of receptors […]. HL-60, KG-1, MonoMac-1 and Kasumi-1 AML cell lines were incubated with subtype-specific 5HTR antagonists: Apomorphine (type 1, 2 and 5), Methiothepin (type 1 and 2) (CAS no. 74611-28-2), Amperozide (type 2) (CAS no. 75558-90-6), GR113808 (type 4) (CAS no. 144625-51-4). 72 h after treatment, cell viability was determined by flow cytometry. Cells were stained with 7-AAD (CAS no. 7240-37-1) and Hoechst 33342 (CAS no. 23491-52-3). Viability cells were identified by 7-AAD staining exclusion and the presence of Hoechst positive stain. Cell counts were measured by volume. […] In fact, the anti-leukaemic effect was reversed in the presence of a competitive agonist such as the natural ligand 5-HT (CAS no. 153-98-0) or 5-CT (CAS no. 74885-72-6).

[2] = system: primary AML patient samples; experiment: Myeloid differentiation markers on primary patient AML samples; type: cell-based, human; details: 0.1, 1 and 10 μM, 72 h
Method: FIG. 6. […] The surface expression of CD11b, CD14 and CD15 was detected by flow cytometry. […] 9 primary AML samples were analyzed in triplicates. Each symbol represents a specific AML patient.
FIG. 7. […] The surface expression of CD11b, CD14 and CD15 was detected by flow cytometry. […] 9 primary AML samples were analyzed in triplicates. Each symbol represents a specific AML patient.

[3] = system: MonoMac-1 cells; experiment: In vivo xenotransplantation mouse model (NSG mice injected with MonoMac-1 cells); details: IP every other day, day 7 to 14; apomorphine 5 mg/kg, methiothepin 0.1 mg/kg; versus vehicle
Method: FIG. 15. Treatment with 5HTR1 antagonists reduce AML burden in an in vivo xenotransplantation mouse model. 6-8 week-old NOD.Cg-Prkdc^scid Il2rg^tm1Wj1/SzJ (NSG) mice were myeloablated with busulfan (30 mg/kg IP) at day 0. At day 1, 10^6 MonoMac-1 cells were injected IV. From day 7 to day 14, mice were treated IP every other day with apomorphine (5 mg/kg) or methiothepin (0.1 mg/kg), while control mice were treated with saline vehicle (0.9% NaCl). At day 15, mice were sacrificed and their bones (iliac crests, femurs and tibias) were harvested and analyzed for the presence of human cells. Bone marrow samples were measured by flow cytometry. Frequency of human CD45 positive cells (upper panel) and total human CD45 positive cells (lower panel) in BM refer to control. Bars represent the mean value. Error bars represent SEM. **p<0.01; ***p<0.001.
Leukemia cells mainly reside in the bone marrow niche where the stroma cell compartment provides paracrine signaling that strongly mediates their survival and proliferation and protects them from apoptosis ( ). Accordingly, conditioned immunodeficient NOD.Cg-Prkdc^scid Il2rg^tm1Wj1/SzJ (NSG) mice (Sanchez et al Leukemia. 2009 November; 23(11):2109-17) were transplanted with human AML cells and left for 7 days for the leukemia to be established. […]

[4] = system: AML cells; experiment: CFU assay of engrafted AML samples; type: cell-based; details: engrafted human cells from primary transplanted mice
Method: FIG. 17. Treatments with 5HTR antagonists reduce the leukemia regeneration capacity of primary AML samples in secondary recipient, without affecting normal hematopoiesis. Upper panel. 3-10×10^5 engrafted bone marrow cells from primary transplanted mice were injected intravenously into secondary recipients (conditioned NSG mice) and left untreated for 8 weeks. Bone marrow cells were analyzed as in FIG. 16. Frequency of human CD45 positive cells referred to control is represented. Lower panel. 50×10^3 engrafted human cells were screened for CFUs. The normalized number of CFUs obtained is represented. *p<0.05; ***p<0.005; ****p<0.0001.
In order to assay the in vivo self-renewal capacity remaining in the engrafted samples, secondary transplants were performed. Less than 35% of AML cells were detected in mice injected with apomorphine- or methiothepin-treated cells (FIG. 17).

## CN1CCc2cccc3c2[C@H]1Cc1ccc(O)c(O)c1-3 [Apomorphine, (6aR)-6-methyl-5,6,6a,7-tetrahydro-4H-dibenzo[de,g]quinoline-10,11-diol]
[1]; 10 μM antagonist with 5-CT or 5-HT
  anti-leukaemic effect in the presence of a competitive agonist (5-HT or 5-CT): reversed
[1]; 0.1, 1 and 10 μM, 72 h, HL-60, KG-1, MonoMac-1, Kasumi-1
  cell viability of AML cell lines: a reduction in cell viability was detected in a dose-response fashion; also recorded: reduced AML cell viability
[1]; subtype-specific 5HTR antagonists, 0.1, 1 and 10 μM, 72 h
  cell death on AML cell lines: induced cell death
[2]
  myeloid markers (CD11b, CD14, CD15) on primary AML patient samples: induced the upregulation of myeloid markers; also recorded: induced myeloid differentiation
[3]
  AML burden in bone marrow: significant reduction in AML burden
[4]
  clonogenic capacity of engrafted AML samples (CFU assays): significantly reduced
